According to patent US8226972B2, “Vaginal delivery of drugs” (FemmePharma Holding Company, Inc., priority 2001, dated 2012):
Structures can show the parent of a compound that is named as a salt. Where two headings read alike, the source gives them in different places.

Columns and labels:
urgency incontinence = test: Example 4: clinical case studies, urgency incontinence / urinary frequency, urgency and nocturia; format: in vivo, human; conditions: person
Procedure: A person developed urgency incontinence two years after their laparoscopically assisted vaginal hysterectomy. […] However they experienced side effects, such as dry mouth, from the drug. Two weeks later, they started applying oxybutynin (5 mg) into the vagina at bed time, instead of Ditropan XL. […] The patient used vaginal oxybutynin (5 mg) at bed time for 6 months.
A person with a history of chronic pelvic pain and multiple surgical procedures, including pain mapping under conscious sedation and repair of occult bilateral inguinal hernias, developed urinary frequency, urgency and nocturia. Their urine analysis and urine culture were negative for signs of urinary tract infection. Their treatment began with vaginal oxybutynin (5 mg) once daily, at bed time, applied into the vagina.

bladder [1] = test: Example 2: bladder contractile response to intra-arterial Ach; format: in vivo, rabbit
Text: (§1) 16 mature female New Zealand white rabbits were separated into two groups of eight. The rabbits in Group 1 received a high dose oxybutynin formulations; and the rabbits in Group 2 received a low dose oxybutynin formulation. For the high dose, 3 grams (g) of oxybutynin HCl were suspended in 6 g of gel (yielding a concentration of 0.5 g Oxybutynin/g gel) and 3 g of the formulation were placed in the vagina. For the low dose, 0.3 g of oxybutynin HCl were suspended in 6 g of gel (yielding a concentration of 0.05 g Oxybutynin/g gel), and 3 g of the formulation were placed in the vagina.
(§2) Acetylcholine (Ach), a chemical that causes the bladder muscle (detrusor) to squeeze or contract, was injected through the intra-arterial polyethylene catheter in a volume of 0.31-0.39 mL (i.e., 0.1 mL/kg of rabbit), followed by 0.2 mL of heparinized saline. Change of intravesical pressure following the administration of Ach (10^−6 mol/kg) was monitored by the pressure transducer and recorded on a Grass model 7D polygraph. A 10-minute interval passed between Ach administrations, and three flushes of normal saline, in an amount of 0.1 ml/kg of rabbit, were administered. Three responses to Ach were performed at 10-minute intervals to ensure consistent responses.
(§3) After the third Ach administration, the application of the oxybutynin containing gel was administered to the vagina and the responses to Ach were determined at 15-minute intervals for 2 hours. When the response to Ach was reduced, then the time period was extended to 4 hours. At the end of the experiment, a second cystometric curve was generated.
(§4) The protocol described in Example 1 was followed in this experiment, with the following changes. The infusion pump was turned on and, at an infusion rate of 1.42 mL/minute, a cystometric curve was generated.

bladder [2] = test: Example 1: bladder pressure response to intra-arterial Ach after vaginal oxybutynin gel; format: in vivo, rabbit; conditions: for response of the bladder pressure to Ach: high dose (0.5 g Oxybutynin/g gel, 3 g vaginal)
Text: as §1
(§5) Each rabbit was sedated with an intramuscular injection of ketamine-xylazine ((25 mg ketamine+6 mg xylazine)/kg rabbit) and anesthesia was maintained by isoflurane. After anesthesia, the right external carotid artery was cannulated for blood pressure monitoring. A polyethylene catheter (Intramedic) with an outer diameter of 0.043 inches was inserted through the rabbit's right femoral artery until it reached the lower abdominal aorta (approximately 0.5 cm above the bifurcation of the aorta). A heparizined saline (30 iu/mL) filled polyethylene catheter was used for intra-arterial administration of drugs. To facilitate the delivery of the maximum amount of drugs to the urinary bladder, the rabbit's left femoral artery was ligated.
(§6) The bladder was exposed through a midline incision, and the bladder dome was catheterized with an 8 F catheter for both the monitoring of bladder pressure and for cystometry. The bladder neck-urethra was ligated to prevent micturition or leakage through the urethra. The catheter was connected to an infusion pump (Harvard Apparatus) and a pressure transducer.
as §2, §3

blood pressure [3] = test: Example 1: blood pressure response to intra-arterial Ach after vaginal oxybutynin gel; format: in vivo, rabbit
Text: as §1, §5, §2, §3

bladder [4] = test: Example 1: cystometry (bladder capacity, Bladder Compliance); format: in vivo, rabbit; conditions: high dose (0.5 g/g gel) vaginal
Text: as §1, §6
Then, the rabbit was taken off of the isoflurane and anesthesia was maintained by ketamine-xylazine so that micturition reflexes could be observed during cystometry. […] Bladder capacity and Bladder Compliance were determined. […]
(§7) After the third Ach administration, the application of the oxybutynin containing gel was administered to the vagina and the responses to Ach were determined at 15-minute intervals for 2 hours. […]

bladder [5] = test: Example 2: cystometry at 1.42 mL/minute after vaginal oxybutynin; format: in vivo, rabbit
Text: as §1, §6
Then, the rabbit was taken off of the isoflurane and anesthesia was maintained by ketamine-xylazine so that micturition reflexes could be observed during cystometry. After 15 minutes, the infusion pump was turned on and at an infusion rate of 1.0 mL/minute, a cystometric curve was generated. The volume at which a micturition reflex was observed was considered to be the functional capacity of the bladder. Bladder capacity and Bladder Compliance were determined. The bladder was then filled to 20 mL.
as §3, §4

blood pressure [6] = test: Example 2: vascular response to Ach; format: in vivo, rabbit; conditions: entire 4-hour period
Text: as §1
Each rabbit was sedated with an intramuscular injection of ketamine-xylazine ((25 mg ketamine+6 mg xylazine)/kg rabbit) and anesthesia was maintained by isoflurane. […]
Acetylcholine (Ach), a chemical that causes the bladder muscle (detrusor) to squeeze or contract, was injected through the intra-arterial polyethylene catheter in a volume of 0.31-0.39 mL (i.e., 0.1 mL/kg of rabbit), followed by 0.2 mL of heparinized saline. Change of intravesical pressure following the administration of Ach (10^−6 mol/kg) was monitored by the pressure transducer and recorded on a Grass model 7D polygraph. […]
as §7

bladder [7] = test: Example 3: cystometry after vaginal or oral oxybutynin; format: in vivo, rabbit; conditions: for micturition pressure: four hours after administration
Procedure: (§8) 30 mature female New Zealand white rabbits (˜4 kg) were separated into five groups of six rabbits each. Intra arterial administration of Ach was used as a model for hyperreflexia. The effects on intra arterial stimulated contraction were compared with effects on micturition pressure generation.
as §5, with “Central Mutual” for “cm”
as §6, with “tranducer. The right carotid artery was cannulated for monitoring blood pressure. Bladder pressure and blood pressure were recorded on a Grass model 7D Polygraph, and were simultaneously digitized using a Polyview A/D digital analytical system.” for “transducer.”
(§9) Cystometry was performed at 1.4 mL/min until a micturition contraction or a volume of 80 mL was obtained. After the first cystometry, Ach (10^−6 mol/kg) was injected through the intra-arterial polyethylene catheter in a volume of 0.1 ml/kg followed by three washes of 0.2 ml of heparinized saline. The blood pressure and bladder pressure responses were recorded and digitized.
(§10) After three consistent Ach tests, (i.e. responses within 20% of each other) the rabbits in the control group (Group 1) received a vaginal administration of 3 mL of gel (no oxybutynin); the rabbits in the high dose group (Group 2) received a vaginal administration of 1.5 g of oxybutynin suspended in 3 mL of gel; the rabbits in the intermediate dose group (Group 3) received 0.5 g of oxybutynin suspended in 3 mL of gel; the rabbits in the low dose group (Group 4) received a vaginal administration of 0.15 g of oxybutynin suspended in 3 mL of gel; and the rabbits in the oral dose group (Group 5) received 0.5 g of an oral preparation of oxybutynin dissolved in 3 mL of saline.
(§11) Ach was administered at 10 minute intervals for two hours, and then a second cystometry was performed. Ach administration continued at 10 minute intervals for a second two hour period, and then a final cystometry performed.
(§12) Statistical significance was determined using analysis of variance followed by Bonferroni test for individual differences. A p<0.05 was required for significance.

bladder [8] = test: Example 3: bladder response to intra-arterial Ach (model for hyperreflexia); format: in vivo, rabbit
Procedure: as §8
as §5, with “Central Mutual” for “cm”
as §6, with “tranducer. The right carotid artery was cannulated for monitoring blood pressure. Bladder pressure and blood pressure were recorded on a Grass model 7D Polygraph, and were simultaneously digitized using a Polyview A/D digital analytical system.” for “transducer.”
as §9, §10, §11, §12

blood pressure [9] = test: Example 3: vascular (blood pressure) response to Ach; format: in vivo, rabbit
Procedure: as §8
as §5, with “Central Mutual” for “cm”
as §6, with “tranducer. The right carotid artery was cannulated for monitoring blood pressure. Bladder pressure and blood pressure were recorded on a Grass model 7D Polygraph, and were simultaneously digitized using a Polyview A/D digital analytical system.” for “transducer.”
Cystometry was performed at 1.4 mL/min until a micturition contraction or a volume of 80 mL was obtained. […] The blood pressure and bladder pressure responses were recorded and digitized. […]
Statistical significance was determined using analysis of variance followed by Bonferroni test for individual differences. […]

urge incontinence = conditions: cited from earlier work
[10] = solid device containing oxybutynin inserted in the vagina of a rabbit (Schröder); cited from earlier work
[11] = low dose (0.05 g/g gel) vaginal, two out of three experiments
[12] = vaginally delivered high dose, overall
[13] = 5 mg into the vagina at bed time
[14] = 5 mg into the vagina twice daily
[15] = vaginal 5 mg at bed time for 6 months
[16] = oxybutynin solution delivered by catheter (Saito)

Compound: Cc1ccc(O)c([C@H](CCN(C(C)C)C(C)C)c2ccccc2)c1 [DETROL®, tolterodine tartrate]
- improvement of urgency incontinence (urgency incontinence; 2 mg orally twice a day): slight improvement

Compound: CCN(CC)CC#CCOC(=O)C(O)(c1ccccc1)C1CCCCC1 (stereo not drawn) [free base form, oxybutynin]
- response to Ach (bladder [1]; high dose of the free base form): no effect

Compound: CCN(CC)CC#CCOC(=O)C(O)(c1ccccc1)C1CCCCC1 (stereo not drawn) [oxybutynin]
- response of the bladder pressure to Ach (bladder [2]; 15 minutes after administration): completely lost
- response of the bladder pressure to Ach (bladder [2]; 4 hours after administration): did not increase
- reduction of the response of the bladder pressure to Ach (bladder [2]; low dose (0.05 g/g gel) vaginal, one experiment): about 50%
- effect on bladder pressure response to Ach (bladder [2]; [11]): no significant effect
- contractile response of the bladder to Ach (bladder [2]; [12]): significantly reduced
- response of the blood pressure to Ach (blood pressure [3]; high dose (0.5 g/g gel) vaginal, 15 minutes after administration): clear response
- response of the blood pressure to Ach (blood pressure [3]; high dose (0.5 g/g gel) vaginal, 4 hours after administration): decreased
- effect on blood pressure response to Ach (blood pressure [3]; [11]): no significant effect
- response of the blood pressure to Ach (blood pressure [3]; [12]): without having any significant effects
- Bladder Compliance (bladder [4]): significant decrease
- bladder volume at micturition (bladder [4]): increase
- Bladder Compliance (bladder [5]; high dose vaginal): significant decrease
- intravesical pressure during cystometry (bladder [5]; high dose vaginal): decreased
- intravesical volume at micturition (no micturition reflex up to this volume; cystometry stopped) (bladder [5]; high dose vaginal, before approximately 20 mL): > 80 mL
- micturition reflex (bladder [5]; high dose vaginal, up to bladder volume of 80 mL): inhibited
- Bladder Compliance (bladder [5]; low dose vaginal): decrease
- intravesical pressure during cystometry (at micturition) (bladder [5]; low dose vaginal, after administration (about 15 before), FIG. 4): about 8 cm H2O
- pressure at which micturition occurred (bladder [5]; low dose vaginal, after administration (about 16 before), FIG. 3): about 8 cm H2O
- magnitude of the micturition reflex (micturition pressure) (bladder [5]; low dose vaginal, after administration (about 22 before)): about 10 cm H2O
- intravesical volume at micturition (bladder [5]; low dose vaginal, after treatment, approximately the same as before): about 22 mL
- contractile response to intra-arterial Ach (bladder [1]; high dose vaginal, after 4 hours): not restored
- contractile response to intra-arterial Ach (bladder [1]; high dose vaginal, at 15 minutes): complete inhibition
- contractile response to intra-arterial Ach (bladder [1]; low dose vaginal, at 45 minutes): decreased response
- intravesical pressure response to intra-arterial Ach (bladder [1]; low dose vaginal, from 45 minutes for the remaining 2.25 hours): about 7 cm H2O
- vascular response to Ach (blood pressure [6]; high dose vaginal): no effect
- vascular response to Ach (blood pressure [6]; low dose vaginal): no effect
- bladder volume at micturition (bladder [7]; all of the formulations (vaginal low, intermediate, high; oral)): significant increase
- Bladder Compliance (bladder [7]; all oxybutynin-treated groups): decreased
- decrease of Bladder Compliance (bladder [7]; high dose vaginal): 7.3 fold
- micturition reflex (bladder [7]; highest dose): virtually eliminated
- decrease of Bladder Compliance (bladder [7]; intermediate dose vaginal): 4.5 fold
- decrease of Bladder Compliance (bladder [7]; low dose vaginal): 3.3 fold
- intravesical pressure immediately prior to micturition (bladder [7]; oral (0.5 g in 3 mL saline)): significantly reduced
- inhibitory effects on the micturition reflex, oral compared with the vaginal route (bladder [7]; oral preparation vs intermediate dose vaginal): significantly greater inhibitory effects
- effect on Bladder Compliance and bladder capacity, oral compared with the vaginal route (bladder [7]; oral preparation vs intermediate dose vaginal (equal effects on Ach stimulated contraction)): smaller effect
- micturition pressure (bladder [7]; oral): significantly reduced
- intravesical pressure immediately prior to micturition (bladder [7]; vaginal high dose (1.5 g in 3 mL gel)): significantly reduced
- micturition pressure (bladder [7]; vaginal high dose): significantly reduced
- intravesical pressure immediately prior to micturition (bladder [7]; vaginal intermediate dose (0.5 g in 3 mL gel)): significantly reduced
- micturition pressure (bladder [7]; vaginal intermediate dose): not significantly affected
- intravesical pressure immediately prior to micturition (bladder [7]; vaginal low dose (0.15 g in 3 mL gel)): no significant effect
- micturition pressure (bladder [7]; vaginal low dose): not significantly affected
- response to Ach compared to the control response (bladder [8]; all preparations of oxybutynin): statistically significant decrease
- onset of action (bladder [8]; high dose vaginal): very fast
- response to Ach (bladder [8]; high dose vaginal, at 30 minutes, remained active throughout the 4 hour study): completely inhibited
- response to acetylcholine (bladder [8]; highest dose): completely eliminated
- response to Ach (bladder [8]; intermediate vaginal dose, reached over 90 minutes, remaining for the rest of the experiment): approximately 40 % of control
- response to Ach (bladder [8]; low vaginal dose, reached over 90 minutes, remaining for the rest of the experiment): approximately 40 % of control
- response to Ach (bladder [8]; oral, reached over 90 minutes, remaining for the rest of the experiment): approximately 40 % of control
- vascular response to Ach (blood pressure [9]; any dose, vaginally delivered, entire 4 hour period): no effect
- effects on the cardiovascular system (blood pressure [9]; highest dose): only minor effects
- blood pressure response to Ach (blood pressure [9]; oral): inhibitory effects
- side effects (urgency incontinence; [13]): did not experience any noticeable side effects
- urgency symptoms (urgency incontinence; [13]): improved remarkably
- improvement of symptoms (urgency incontinence; [14]): remarkable improvement
- side effects (urgency incontinence; [14]): no significant side effects
- control of symptoms of urgency incontinence (urgency incontinence; [15]): remained effective
- side effects (urgency incontinence; [15]): did not suffer from any side effects
- improvement of urinary frequency, urgency and nocturia (urgency incontinence; vaginal 5 mg once daily at bed time): significant improvement
- side effects (urge incontinence; intravesical administration (Brendler)): no side effects were observed
- patients who reported improvement and became totally continent (urge incontinence; intravesical administration, eleven patients with persistent urge incontinence (Brendler)): Ten out of eleven
- effectiveness in urinary incontinence (urge incontinence; [16]): effective
- side effects (urge incontinence; [16]): did not experience side effects
- systemic levels of oxybutynin [10]: effective at reducing the systemic levels
